Where a SMILES comes first, the peptide text is derived from it.
Columns and labels:
[1] = Chemical stability (RP-HPLC normalized purity after incubation at 40° C.); type: physicochemical; conditions: 14-day incubation, 0.2 mg/ml, normalized purity (area-%); for pH 7 normalized stability: pH 7, 40° C.
Method in brief: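 Peptide at 0.2 mg/ml final in water adjusted to pH 6, 7, 7.5 or 9, incubated at 40° C for 14 days. Purity measured as main-peak area-% by C18 RP-HPLC (acetonitrile/TFA/water gradient, UV 220 nm) and normalized to T=0 set at 100 for each pH.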

human GLP-1 receptor = biological target: T1, human GLP-1 receptor (Homo sapiens, UniProt P43220); experiment: GLP-1 receptor potency assay (cAMP ALPHASCREEN, HEK293 cells stably expressing GLP-1 R); type: cell-based; conditions: cAMP response, HEK293 cells expressing human GLP-1 R
T1 construct: expressed in transfected cells
Method in brief: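 Clonal HEK293 line stably transfected with human GLP-1R (G418-selected) was treated with test compounds and the cAMP response quantified by ALPHASCREEN. Signals were normalized to positive control and vehicle, with EC50 and maximal response taken from concentration-response curves.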

T1 sequence (P43220 24-463): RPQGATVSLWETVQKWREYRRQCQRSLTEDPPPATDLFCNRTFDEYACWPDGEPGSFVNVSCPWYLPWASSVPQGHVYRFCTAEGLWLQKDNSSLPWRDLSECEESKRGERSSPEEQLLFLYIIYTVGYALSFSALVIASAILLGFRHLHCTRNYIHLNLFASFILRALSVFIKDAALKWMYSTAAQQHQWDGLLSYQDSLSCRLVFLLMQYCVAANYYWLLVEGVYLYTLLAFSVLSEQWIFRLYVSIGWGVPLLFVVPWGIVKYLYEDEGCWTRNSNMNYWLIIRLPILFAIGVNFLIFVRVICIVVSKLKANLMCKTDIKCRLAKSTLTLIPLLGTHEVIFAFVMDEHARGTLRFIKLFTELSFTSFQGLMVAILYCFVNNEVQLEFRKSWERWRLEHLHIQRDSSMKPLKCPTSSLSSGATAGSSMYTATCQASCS

SMILES	pH 7 normalized stability [1]	EC50 (human GLP-1 receptor)	pH 6 normalized stability ([1]; pH 6, 40° C.)
CC[C@H](C)[C@H](NC(=O)[C@H](Cc1ccccc1)NC(=O)[C@H](CC(=O)O)NC(=O)[C@H](CCCNC(=N)N)NC(=O)[C@H](C)NC(=O)[C@H](C)NC(=O)[C@H](CC(C)C)NC(=O)[C@H](CCCCNC(=O)CC[C@H](NC(=O)CCCCCCCCCCCCCCCCC(=O)O)C(=O)O)NC(=O)[C@H](CC(=O)O)NC(=O)[C@H](CC(C)C)NC(=O)[C@@H](NC(=O)[C@@H](NC(=O)[C@H](C)NC(=O)[C@H](CC(C)C)NC(=O)[C@H](CCC(=O)O)NC(=O)[C@H](CO)NC(=O)[C@@H](NC(=O)[C@H](Cc1ccccc1)NC(=O)[C@H](CO)NC(=O)CNC(=O)[C@H](CCC(=O)O)NC(=O)C(C)(C)NC(=O)[C@@H](N)Cc1c[nH]cn1)[C@@H](C)O)[C@@H](C)O)[C@@H](C)CC)C(=O)N[C@@H](C)C(=O)N[C@@H](Cc1c[nH]c2ccccc12)C(=O)N[C@@H](CC(C)C)C(=O)N[C@H](C(=O)N[C@@H](CCC(=O)O)C(=O)N[C@@H](Cc1c[nH]cn1)C(=O)N[C@@H](CCCCN)C(=O)N[C@H](C(=O)N[C@H](C(=O)N[C@@H](CC(=O)O)C(=O)O)[C@@H](C)O)[C@@H](C)CC)[C@@H](C)CC [Compound 11] (HELM PEPTIDE1{H.[Aib].E.G.S.F.T.S.E.L.A.T.I.L.D.K.L.A.A.R.D.F.I.A.W.L.I.E.H.K.I.T.D}|PEPTIDE2{[O=C(O)CCCCCCCCCCCCCCCCC(=O)[*:2]].[gGlu]}$PEPTIDE1,PEPTIDE2,16:R3-2:R2$$$V2.0)	A (>90% normalised stability)	0.32 nM	–
CC[C@H](C)[C@H](NC(=O)[C@H](Cc1ccccc1)NC(=O)[C@H](CC(=O)O)NC(=O)[C@H](CCCNC(=N)N)NC(=O)[C@H](C)NC(=O)[C@H](C)NC(=O)[C@H](CCC(=O)O)NC(=O)[C@H](CCCCNC(=O)CC[C@H](NC(=O)CCCCCCCCCCCCCCCCC(=O)O)C(=O)O)NC(=O)[C@H](CC(=O)O)NC(=O)[C@H](CC(C)C)NC(=O)[C@@H](NC(=O)[C@@H](NC(=O)[C@H](C)NC(=O)[C@H](CC(C)C)NC(=O)[C@H](CCC(=O)O)NC(=O)[C@H](CO)NC(=O)[C@@H](NC(=O)[C@H](Cc1ccccc1)NC(=O)[C@H](CO)NC(=O)CNC(=O)[C@H](CCC(=O)O)NC(=O)C(C)(C)NC(=O)[C@@H](N)Cc1c[nH]cn1)[C@@H](C)O)[C@@H](C)O)[C@@H](C)CC)C(=O)N[C@@H](C)C(=O)N[C@@H](Cc1c[nH]c2ccccc12)C(=O)N[C@@H](CC(C)C)C(=O)N[C@H](C(=O)N[C@@H](CCC(=O)O)C(=O)N[C@@H](Cc1c[nH]cn1)C(=O)N[C@@H](CCCCN)C(=O)N[C@H](C(=O)N[C@H](C(=O)N[C@@H](CC(=O)O)C(=O)O)[C@@H](C)O)[C@@H](C)CC)[C@@H](C)CC [Compound 2] (HELM PEPTIDE1{H.[Aib].E.G.S.F.T.S.E.L.A.T.I.L.D.K.E.A.A.R.D.F.I.A.W.L.I.E.H.K.I.T.D}|PEPTIDE2{[O=C(O)CCCCCCCCCCCCCCCCC(=O)[*:2]].[gGlu]}$PEPTIDE1,PEPTIDE2,16:R3-2:R2$$$V2.0)	A (>90% normalised stability)	0.13 nM	A (>90% normalised stability)
